Experimental data published in ChEMBL document CHEMBL1909046, “DrugMatrix in vitro pharmacology data”.

Experiments:
Melanocortin receptor 5 = Melanocortin receptor 5 (Homo sapiens, UniProt P33032); assay type: cell membranes, HEK293, Membrane; conditions: hek293; further: in other assays of this panel Not Active means under 50% inhibition at 10 µM
[1] = biological target: T1, Amine oxidase [flavin-containing] A (Homo sapiens, UniProt P21397); assay: DRUGMATRIX: Monoamine Oxidase MAO-A enzyme inhibition (substrate: Kynuramine); design: species or system BTI-TN-5B1-4; conditions: bti-tn-5b1-4; Not Active = under 50% inhibition at 10 µM
T1 sequence (P21397 whole entry): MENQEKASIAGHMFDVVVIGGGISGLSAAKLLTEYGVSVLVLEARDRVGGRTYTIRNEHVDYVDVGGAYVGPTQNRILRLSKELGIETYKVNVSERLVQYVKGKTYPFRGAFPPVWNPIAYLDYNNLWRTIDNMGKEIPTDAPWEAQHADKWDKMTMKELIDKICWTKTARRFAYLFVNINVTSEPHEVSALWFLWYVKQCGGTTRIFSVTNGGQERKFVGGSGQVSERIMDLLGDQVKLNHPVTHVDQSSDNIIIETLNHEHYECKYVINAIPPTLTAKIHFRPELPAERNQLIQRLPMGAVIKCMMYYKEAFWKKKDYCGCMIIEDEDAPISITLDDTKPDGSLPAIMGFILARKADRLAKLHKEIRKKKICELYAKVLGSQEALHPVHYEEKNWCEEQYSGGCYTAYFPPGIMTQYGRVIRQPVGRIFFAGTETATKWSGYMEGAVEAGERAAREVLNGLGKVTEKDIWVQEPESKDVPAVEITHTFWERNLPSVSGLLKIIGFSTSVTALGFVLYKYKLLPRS

[2] = biological target: T2, C-C chemokine receptor type 4 (Homo sapiens, UniProt P51679); assay type: cell membranes, Membrane; conditions: chem-1; further: in other assays of this panel Not Active means under 50% inhibition at 10 µM
T2 sequence (P51679 whole entry): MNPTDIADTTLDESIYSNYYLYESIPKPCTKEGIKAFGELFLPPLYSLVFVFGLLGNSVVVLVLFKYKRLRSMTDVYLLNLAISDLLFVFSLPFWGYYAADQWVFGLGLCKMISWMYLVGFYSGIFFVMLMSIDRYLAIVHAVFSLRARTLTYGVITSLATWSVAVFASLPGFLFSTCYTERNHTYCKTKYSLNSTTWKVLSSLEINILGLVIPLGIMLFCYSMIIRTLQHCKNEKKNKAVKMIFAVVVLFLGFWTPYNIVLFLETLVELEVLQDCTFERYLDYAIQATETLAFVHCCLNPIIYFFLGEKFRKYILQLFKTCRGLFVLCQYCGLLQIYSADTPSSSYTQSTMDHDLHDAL

[3] = biological target: Beta-3 adrenergic receptor (Homo sapiens, UniProt P13945); assay: DRUGMATRIX: Adrenergic beta3 radioligand binding (ligand: [125I] Cyanopindolol); assay type: cell membranes, HEK293, Membrane; conditions: hek293; Not Active = under 50% inhibition at 10 µM
Beta-3 adrenergic receptor, sequence (P13945 whole entry): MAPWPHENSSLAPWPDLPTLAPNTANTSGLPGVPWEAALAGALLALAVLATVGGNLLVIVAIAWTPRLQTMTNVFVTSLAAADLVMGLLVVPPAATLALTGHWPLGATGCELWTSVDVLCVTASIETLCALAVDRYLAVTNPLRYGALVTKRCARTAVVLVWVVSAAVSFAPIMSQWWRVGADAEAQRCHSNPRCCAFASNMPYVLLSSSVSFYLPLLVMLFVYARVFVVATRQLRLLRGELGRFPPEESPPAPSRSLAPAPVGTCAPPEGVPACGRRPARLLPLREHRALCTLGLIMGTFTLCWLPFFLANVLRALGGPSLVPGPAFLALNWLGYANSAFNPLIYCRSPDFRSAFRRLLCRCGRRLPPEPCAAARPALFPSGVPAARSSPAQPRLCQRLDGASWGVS

[4] = DRUGMATRIX: Purinergic P2X radioligand binding (ligand: [3H] alpha, beta-Methylene-ATP); assay type: cell membranes, Oryctolagus cuniculus, New Zealand albino, Urinary bladder, Membrane; conditions: Not Active = under 50% inhibition at 10 µM
[5] = biological target: cGMP-specific 3',5'-cyclic phosphodiesterase (Homo sapiens, UniProt O76074); assay: DRUGMATRIX: Phosphodiesterase PDE5 enzyme inhibition (substrate: [3H]cGMP + cGMP); assay type: tissue-based, Platelet; conditions: platelet; Not Active = under 50% inhibition at 10 µM
[6] = DRUGMATRIX: Platelet-Derived Growth Factor (PDGF) radioligand binding (ligand: [125I] PDGF); assay type: cell-based; conditions: nih3t3; Not Active = under 50% inhibition at 10 µM
Cathepsin G = biological target: T3, Cathepsin G (Homo sapiens, UniProt P08311); assay type: tissue-based; conditions: neutrophil;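 further: inhibition of Cathepsin G enzyme activity, tested on an AMC-conjugated peptide substrate; in other assays of this panel Not Active means under 50% inhibition at 10 µM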
T3 sequence (P08311 whole entry): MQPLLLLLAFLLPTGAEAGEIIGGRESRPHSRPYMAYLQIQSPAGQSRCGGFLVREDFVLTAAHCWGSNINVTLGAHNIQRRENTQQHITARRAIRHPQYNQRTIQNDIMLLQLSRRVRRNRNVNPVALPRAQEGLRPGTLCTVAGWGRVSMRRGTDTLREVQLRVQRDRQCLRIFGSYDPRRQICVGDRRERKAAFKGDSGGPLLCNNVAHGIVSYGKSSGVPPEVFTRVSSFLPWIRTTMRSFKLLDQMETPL

[7] = biological target: 5-hydroxytryptamine receptor 6 (Homo sapiens, UniProt P50406); assay type: cell membranes, HeLa, Membrane; conditions: hela; further: in other assays of this panel Not Active means under 50% inhibition at 10 µM
5-hydroxytryptamine receptor 6, sequence (P50406 whole entry): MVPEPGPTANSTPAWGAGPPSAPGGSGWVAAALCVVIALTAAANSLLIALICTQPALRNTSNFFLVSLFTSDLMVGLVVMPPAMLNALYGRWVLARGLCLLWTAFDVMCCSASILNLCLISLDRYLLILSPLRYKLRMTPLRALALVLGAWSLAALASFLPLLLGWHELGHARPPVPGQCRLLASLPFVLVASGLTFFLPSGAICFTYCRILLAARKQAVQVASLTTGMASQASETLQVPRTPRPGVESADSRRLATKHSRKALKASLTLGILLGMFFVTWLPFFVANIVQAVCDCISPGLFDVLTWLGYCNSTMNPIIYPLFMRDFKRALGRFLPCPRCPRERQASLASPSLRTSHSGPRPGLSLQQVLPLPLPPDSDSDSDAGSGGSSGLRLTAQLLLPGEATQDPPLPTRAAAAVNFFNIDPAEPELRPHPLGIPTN

[8] = biological target: Epidermal growth factor receptor (Homo sapiens, UniProt P00533); assay: DRUGMATRIX: Protein Tyrosine Kinase, EGF Receptor enzyme inhibition (substrate: Poly(Glu:Tyr)); assay type: cell-based, Insect cells; conditions: insect cells; Not Active = under 50% inhibition at 10 µM
Epidermal growth factor receptor, sequence (P00533 whole entry): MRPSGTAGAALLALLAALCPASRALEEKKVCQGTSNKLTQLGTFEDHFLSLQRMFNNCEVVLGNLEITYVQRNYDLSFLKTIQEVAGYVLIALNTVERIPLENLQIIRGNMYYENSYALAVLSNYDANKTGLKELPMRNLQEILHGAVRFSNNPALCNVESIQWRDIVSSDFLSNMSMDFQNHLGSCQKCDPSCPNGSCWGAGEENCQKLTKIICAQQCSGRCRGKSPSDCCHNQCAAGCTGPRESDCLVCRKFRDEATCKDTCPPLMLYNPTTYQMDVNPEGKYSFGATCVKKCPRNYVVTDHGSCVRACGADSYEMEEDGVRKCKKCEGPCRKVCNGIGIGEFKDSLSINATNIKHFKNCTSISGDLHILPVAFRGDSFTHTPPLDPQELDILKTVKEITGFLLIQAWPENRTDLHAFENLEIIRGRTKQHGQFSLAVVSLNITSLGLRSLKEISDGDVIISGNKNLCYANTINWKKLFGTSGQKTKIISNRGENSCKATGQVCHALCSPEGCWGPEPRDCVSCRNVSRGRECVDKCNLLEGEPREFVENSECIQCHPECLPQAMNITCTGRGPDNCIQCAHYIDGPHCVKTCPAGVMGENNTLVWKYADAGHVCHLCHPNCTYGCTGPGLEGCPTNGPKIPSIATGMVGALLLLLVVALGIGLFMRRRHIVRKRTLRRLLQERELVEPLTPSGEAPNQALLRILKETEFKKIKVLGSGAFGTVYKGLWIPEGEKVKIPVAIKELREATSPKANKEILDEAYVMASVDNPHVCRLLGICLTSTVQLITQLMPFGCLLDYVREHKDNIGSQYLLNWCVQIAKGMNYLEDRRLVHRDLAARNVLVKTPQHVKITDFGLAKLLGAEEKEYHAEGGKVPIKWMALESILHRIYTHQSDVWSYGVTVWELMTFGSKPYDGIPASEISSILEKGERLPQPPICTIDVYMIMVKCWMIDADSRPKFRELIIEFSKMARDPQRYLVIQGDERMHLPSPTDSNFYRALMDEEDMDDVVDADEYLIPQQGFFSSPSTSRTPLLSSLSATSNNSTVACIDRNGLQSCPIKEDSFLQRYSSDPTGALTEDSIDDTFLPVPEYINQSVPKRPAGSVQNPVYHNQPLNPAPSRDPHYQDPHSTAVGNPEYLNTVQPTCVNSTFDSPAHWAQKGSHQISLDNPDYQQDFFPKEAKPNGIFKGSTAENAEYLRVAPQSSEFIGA

[9] = biological target: Protein phosphatase 3 catalytic subunit alpha (Homo sapiens, UniProt Q08209); design: species or system Escherichia coli
[10] = biological target: Beta-2 adrenergic receptor (Homo sapiens, UniProt P07550); assay: DRUGMATRIX: Adrenergic beta2 radioligand binding (ligand: [3H] CGP-12177); assay type: cell membranes, Membrane; conditions: cho; Not Active = under 50% inhibition at 10 µM
Beta-2 adrenergic receptor, sequence (P07550 whole entry): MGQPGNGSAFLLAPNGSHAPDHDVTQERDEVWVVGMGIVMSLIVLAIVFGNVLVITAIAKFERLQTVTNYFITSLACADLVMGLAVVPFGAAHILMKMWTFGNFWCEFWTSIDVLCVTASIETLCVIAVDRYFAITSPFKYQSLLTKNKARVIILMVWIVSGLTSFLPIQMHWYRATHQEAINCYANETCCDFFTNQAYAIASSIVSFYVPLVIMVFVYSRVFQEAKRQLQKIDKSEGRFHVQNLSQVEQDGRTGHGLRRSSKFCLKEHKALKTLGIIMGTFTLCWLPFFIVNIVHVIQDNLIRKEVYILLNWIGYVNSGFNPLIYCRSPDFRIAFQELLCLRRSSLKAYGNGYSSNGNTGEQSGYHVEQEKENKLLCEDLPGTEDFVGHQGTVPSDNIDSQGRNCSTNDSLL

[11] = biological target: Mitogen-activated protein kinase 14 (Homo sapiens, UniProt Q16539); design: species or system Escherichia coli
Mitogen-activated protein kinase 14, sequence (Q16539 whole entry): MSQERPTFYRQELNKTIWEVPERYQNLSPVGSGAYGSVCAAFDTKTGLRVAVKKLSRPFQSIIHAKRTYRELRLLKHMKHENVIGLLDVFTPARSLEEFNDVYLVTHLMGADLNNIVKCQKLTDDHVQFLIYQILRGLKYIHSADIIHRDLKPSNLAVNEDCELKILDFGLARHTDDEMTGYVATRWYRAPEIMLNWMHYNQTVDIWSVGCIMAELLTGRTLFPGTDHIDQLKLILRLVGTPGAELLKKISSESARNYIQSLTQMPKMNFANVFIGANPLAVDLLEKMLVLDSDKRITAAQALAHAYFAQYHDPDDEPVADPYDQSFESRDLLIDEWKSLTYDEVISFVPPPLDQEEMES

Melanocortin receptor 5, sequence (P33032 whole entry): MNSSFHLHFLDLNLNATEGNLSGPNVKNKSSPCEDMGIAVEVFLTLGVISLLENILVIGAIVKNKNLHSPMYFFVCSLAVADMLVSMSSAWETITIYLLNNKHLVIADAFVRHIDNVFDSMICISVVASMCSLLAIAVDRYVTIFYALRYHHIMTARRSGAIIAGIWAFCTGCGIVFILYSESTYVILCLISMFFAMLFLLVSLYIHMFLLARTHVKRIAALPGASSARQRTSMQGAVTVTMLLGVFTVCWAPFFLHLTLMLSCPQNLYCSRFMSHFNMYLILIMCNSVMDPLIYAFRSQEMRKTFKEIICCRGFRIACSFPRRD

COC(=O)C1=C(C)NC(C)=C(C(=O)OC)C1c1ccccc1[N+](=O)[O-] [NIFEDIPINE]
Not Active: IC50 (Melanocortin receptor 5) | IC50 [1] | IC50 [2] | IC50 [3] | IC50 [4] | Ki [4] | IC50 [5] | IC50 [6] | Ki [6] | IC50 (Cathepsin G) | IC50 [7] | IC50 [8] | IC50 [9] | IC50 [10] | IC50 [11]

NNc1ccccc1 [PHENYLHYDRAZINE]
Not Active: IC50 (Melanocortin receptor 5) | IC50 [1] | IC50 [2] | IC50 [3] | IC50 [4] | Ki [4] | IC50 [5] | IC50 [6] | Ki [6] | IC50 (Cathepsin G) | IC50 [7] | IC50 [8] | IC50 [9] | IC50 [10] | IC50 [11]

CC(=O)[C@H]1CC[C@H]2[C@@H]3CCC4=CC(=O)CC[C@]4(C)[C@H]3CC[C@]12C [PROGESTERONE]
Not Active: IC50 (Melanocortin receptor 5) | IC50 [1] | IC50 [2] | IC50 [3] | IC50 [4] | Ki [4] | IC50 [5] | IC50 [6] | Ki [6] | IC50 (Cathepsin G) | IC50 [7] | IC50 [8] | IC50 [9] | IC50 [10] | IC50 [11]

NC(=O)c1ncn([C@@H]2O[C@H](CO)[C@@H](O)[C@H]2O)n1 [RIBAVIRIN]
Not Active: IC50 (Melanocortin receptor 5) | IC50 [1] | IC50 [2] | IC50 [3] | IC50 [4] | Ki [4] | IC50 [5] | IC50 [6] | Ki [6] | IC50 (Cathepsin G) | IC50 [7] | IC50 [8] | IC50 [9] | IC50 [10] | IC50 [11]

O=[N+]([O-])c1cc([As](=O)(O)O)ccc1O [ROXARSONE]
Not Active: IC50 (Melanocortin receptor 5) | Ki (Melanocortin receptor 5) | IC50 [1] | Ki [1] | IC50 [2] | Ki [2] | IC50 [3] | Ki [3] | IC50 [4] | Ki [4] | IC50 [5] | Ki [5] | IC50 [6] | Ki [6] | IC50 (Cathepsin G) | Ki (Cathepsin G) | IC50 [7] | Ki [7] | IC50 [8] | Ki [8] | IC50 [9] | Ki [9] | IC50 [10] | Ki [10] | IC50 [11] | Ki [11]

CC[C@H]1OC(=O)[C@H](C)[C@@H](O[C@H]2C[C@@](C)(OC)[C@@H](O)[C@H](C)O2)[C@H](C)[C@@H](O[C@@H]2O[C@H](C)C[C@H](N(C)C)[C@H]2O)[C@](C)(O)C[C@@H](C)/C(=N\OCOCCOC)[C@H](C)[C@@H](O)[C@]1(C)O [ROXITHROMYCIN]
Not Active: IC50 (Melanocortin receptor 5) | IC50 [1] | IC50 [2] | IC50 [3] | IC50 [4] | Ki [4] | IC50 [5] | IC50 [6] | Ki [6] | IC50 (Cathepsin G) | IC50 [7] | IC50 [8] | IC50 [9] | IC50 [10] | IC50 [11]

NC(=O)c1ccccc1O [SALICYLAMIDE]
Not Active: IC50 (Melanocortin receptor 5) | IC50 [1] | IC50 [2] | IC50 [3] | IC50 [4] | Ki [4] | IC50 [5] | IC50 [6] | Ki [6] | IC50 (Cathepsin G) | IC50 [7] | IC50 [8] | IC50 [9] | IC50 [10] | IC50 [11]

Cc1ncc([N+](=O)[O-])n1CC(C)O (stereo unspecified) [SECNIDAZOLE]
Not Active: IC50 (Melanocortin receptor 5) | IC50 [1] | IC50 [2] | IC50 [3] | IC50 [4] | Ki [4] | IC50 [5] | IC50 [6] | Ki [6] | IC50 (Cathepsin G) | IC50 [7] | IC50 [8] | IC50 [9] | IC50 [10] | IC50 [11]
